Test results published in PMC5054527, “Mechanism of high affinity inhibition of the human urate transporter URAT1” (Scientific Reports, 2016).
Numbering of substitutions follows the chain as printed. Where two headings read alike, the source gives them in different places.

How the values were obtained:
[1] = target: T1, h-F365Y hURAT1 point mutant (Homo sapiens, UniProt Q96S37, F365Y); assay: URAT1 uric acid transport activity assay; type: cell-based; settings: for fold reduced affinity of h-F365Y compared to hURAT1: from IC50 values; for IC50: h-F365Y, 100 μM 14C-uric acid
T1 sequence (Q96S37 1-553 F365Y): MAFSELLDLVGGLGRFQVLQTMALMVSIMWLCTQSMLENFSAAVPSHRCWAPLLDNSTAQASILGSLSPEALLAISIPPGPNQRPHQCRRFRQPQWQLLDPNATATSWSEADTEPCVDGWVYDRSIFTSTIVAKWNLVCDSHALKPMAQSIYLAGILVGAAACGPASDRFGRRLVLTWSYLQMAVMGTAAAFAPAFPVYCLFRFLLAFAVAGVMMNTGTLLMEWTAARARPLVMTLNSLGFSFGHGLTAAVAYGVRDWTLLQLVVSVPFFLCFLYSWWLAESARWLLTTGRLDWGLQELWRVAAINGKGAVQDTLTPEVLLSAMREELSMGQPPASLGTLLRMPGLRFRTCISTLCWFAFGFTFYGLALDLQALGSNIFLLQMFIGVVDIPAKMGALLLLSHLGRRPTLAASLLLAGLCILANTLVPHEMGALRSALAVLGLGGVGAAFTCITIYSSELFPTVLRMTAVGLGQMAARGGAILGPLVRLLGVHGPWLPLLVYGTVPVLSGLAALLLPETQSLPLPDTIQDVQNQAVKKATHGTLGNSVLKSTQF

[2] = target: T2, h-S35N hURAT1 point mutant (Homo sapiens, UniProt Q96S37, S35N); assay: URAT1 uric acid transport activity assay; type: cell-based; settings: for fold reduced sensitivity/affinity of h-S35N compared to hURAT1: from IC50 values; for IC50: h-S35N, 100 μM 14C-uric acid
T2 sequence (Q96S37 1-553 S35N): T1 sequence (Q96S37 1-553 F365Y) with S35N, Y365F

human URAT1 (hURAT1 WT) = target: T3, human URAT1 (hURAT1 WT) (Homo sapiens, UniProt Q96S37); assay: URAT1 uric acid transport activity assay; type: cell-based; settings: for IC50: hURAT1 WT, 100 μM 14C-uric acid; for fold higher affinity (potency) of hURAT1 compared to rURAT1: ratio of IC50 values, rURAT1 vs hURAT1
T3 sequence (Q96S37 1-553): T1 sequence (Q96S37 1-553 F365Y) with Y365F

rURAT1 = tested on: rURAT1; set-up: method as in PMID 21074513; settings: cited from earlier work
[3] = target: T4, r-Y365F/M481I rURAT1 double point mutant (Rattus norvegicus, UniProt Q3ZAV1, M481I/Y365F); assay: URAT1 uric acid transport activity assay; type: cell-based
T4 construct: hURAT1 and rURAT1 are 553 amino acid proteins with 12 transmembrane segments; expressed in transfected cells; host or cells: HEK-293T
T4 sequence (Q3ZAV1 whole entry Y365F/M481I): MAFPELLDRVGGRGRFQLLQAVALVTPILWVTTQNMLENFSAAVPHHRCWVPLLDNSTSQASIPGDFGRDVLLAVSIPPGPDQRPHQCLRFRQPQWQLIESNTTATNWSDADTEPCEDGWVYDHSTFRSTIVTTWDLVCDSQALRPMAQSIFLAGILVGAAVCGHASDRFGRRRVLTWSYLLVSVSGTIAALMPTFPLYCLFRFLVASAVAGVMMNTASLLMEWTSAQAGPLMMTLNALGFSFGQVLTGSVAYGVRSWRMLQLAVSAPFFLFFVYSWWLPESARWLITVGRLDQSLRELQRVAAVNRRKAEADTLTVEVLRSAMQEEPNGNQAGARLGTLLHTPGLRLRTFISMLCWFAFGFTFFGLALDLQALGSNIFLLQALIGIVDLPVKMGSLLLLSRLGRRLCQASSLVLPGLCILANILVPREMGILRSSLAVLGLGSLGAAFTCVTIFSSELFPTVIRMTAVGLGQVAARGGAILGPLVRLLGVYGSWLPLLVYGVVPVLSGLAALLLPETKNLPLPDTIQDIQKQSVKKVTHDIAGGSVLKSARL
Procedure, shortened: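 Rat URAT1 point or double mutants in pCMV6/neo were transiently transfected into cells and assayed the next day. Compounds were preincubated for 5 minutes, then 100 μM 14C-uric acid uptake was measured over 10 minutes in triplicate. IC50 came from four-parameter variable-slope nonlinear regression.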

h-r IC3 URAT1 chimera = h-r IC3 URAT1 chimera (Homo sapiens, UniProt Q96S37, F348L/G295S/G307R/G309K/G331N/I305V/K308R/L287I/L321R/L328P/M330G/M343T/P317V/P333A/P334G/Q297R/Q312A/R325Q/R342H/S329N/S336R/T289V/V311E/W294Q/W300Q); assay: cell-based
h-r IC3 URAT1 chimera, sequence (Q96S37 1-553 with the stated changes): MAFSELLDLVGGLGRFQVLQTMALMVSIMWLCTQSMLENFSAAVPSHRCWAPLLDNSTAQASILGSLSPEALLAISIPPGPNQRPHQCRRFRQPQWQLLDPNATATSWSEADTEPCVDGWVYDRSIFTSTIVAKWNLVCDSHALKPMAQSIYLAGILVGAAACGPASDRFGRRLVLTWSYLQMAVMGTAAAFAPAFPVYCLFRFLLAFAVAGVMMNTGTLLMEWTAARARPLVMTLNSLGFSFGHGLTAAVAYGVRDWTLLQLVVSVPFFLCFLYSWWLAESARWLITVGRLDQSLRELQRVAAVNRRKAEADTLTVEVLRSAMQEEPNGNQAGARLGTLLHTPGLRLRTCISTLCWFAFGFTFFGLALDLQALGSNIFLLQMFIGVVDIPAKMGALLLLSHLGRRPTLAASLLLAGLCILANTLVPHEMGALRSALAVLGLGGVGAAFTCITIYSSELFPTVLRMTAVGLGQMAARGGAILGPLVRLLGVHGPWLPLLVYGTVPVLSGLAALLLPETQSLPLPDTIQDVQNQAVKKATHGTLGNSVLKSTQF
From the text: hURAT1 (GenBank BC053348.1) and rURAT1 (NCBI NM_001034943.1) genes were purchased from Origene Technologies, Inc. and subcloned into pCMV6/neo using NotI, creating pCMV6/neo-hURAT1 and pCMV6/neo-rURAT1. Mutants were produced by polymerase chain reaction (PCR) or site-directed mutagenesis using the QuikChange Lightning Multi Site-Directed Mutagenesis Kit (Agilent Technologies). […] Detailed methods are provided in Supplementary Methods, and primers are listed in Supplementary Table 1. […] Residues in rURAT1 and hOAT1 that correspond to the residues in hURAT1 were identified from aligned protein sequences (Supplementary Fig. 1)[50].
DNA (10 μg) was mixed with 30 μl of DreamFect Gold (Boca Scientific) in 2 ml OptiMem (Life Technologies). […]
Compounds were serially diluted into assay buffer and added to the cells for 5 minutes prior to addition of radiolabelled uric acid substrate. […] Each treatment was measured in triplicate. […]
Nonlinear regression analyses using GraphPad Prism software were used to calculate the potency of URAT1 inhibitors (IC50 values) from log (inhibitor) versus response - variable slope (four parameters) equations. Statistical significance was assessed using Student’s unpaired t-tests.

O=c1[nH]c(=O)c2[nH]c(=O)[nH]c2[nH]1 [uric acid]
fold reduced affinity of h-F365Y compared to hURAT1 [1]: 2.5 fold | IC50 ([1]; MES pH 5.5): 609 µM | fold reduced sensitivity/affinity of h-S35N compared to hURAT1 [2]: 2.1 fold | IC50 ([2]; MES pH 5.5): 507 µM | IC50 (human URAT1 (hURAT1 WT); MES pH 5.5): 246 µM | fold higher affinity (potency) of hURAT1 compared to rURAT1 (human URAT1 (hURAT1 WT)): greater than 10 fold | Km (rURAT1; read-out: Km for the substrate urate): 1770 µM

CCc1oc2ccccc2c1C(=O)c1cc(Br)c(O)c(Br)c1 [benzbromarone]
IC50 [3]: 3.5 ± 0.39 µM | IC50 (rURAT1): 11.9 µM

O=C1C(CC[S+]([O-])c2ccccc2)C(=O)N(c2ccccc2)N1c1ccccc1 (centres unmarked) [sulfinpyrazone]
IC50 (h-r IC3 URAT1 chimera): 67 ± 15 µM | fold reduced affinity of h-F365Y compared to hURAT1 [1]: 5 fold | IC50 ([1]; HEPES pH 7.3): 163 ± 13 µM | fold reduced sensitivity/affinity of h-S35N compared to hURAT1 [2]: 7 fold | IC50 ([2]; HEPES pH 7.3): 233 ± 54 µM | IC50 (human URAT1 (hURAT1 WT); HEPES pH 7.3): 32 µM | fold higher affinity (potency) of hURAT1 compared to rURAT1 (human URAT1 (hURAT1 WT)): 21 fold | IC50 ([3]; r-Y365F/M481I, HEPES pH 7.3, 100 μM 14C-uric acid, read-out: IC50 (uric acid transport)): 138 ± 25 µM
